{"source": "BindingDB's records for patent US20250179055", "about": "(Innovstone Therapeutics, 2025)", "target": "Apolipoprotein(a) (Homo sapiens, UniProt P08519)", "sequence (P08519 whole entry)": "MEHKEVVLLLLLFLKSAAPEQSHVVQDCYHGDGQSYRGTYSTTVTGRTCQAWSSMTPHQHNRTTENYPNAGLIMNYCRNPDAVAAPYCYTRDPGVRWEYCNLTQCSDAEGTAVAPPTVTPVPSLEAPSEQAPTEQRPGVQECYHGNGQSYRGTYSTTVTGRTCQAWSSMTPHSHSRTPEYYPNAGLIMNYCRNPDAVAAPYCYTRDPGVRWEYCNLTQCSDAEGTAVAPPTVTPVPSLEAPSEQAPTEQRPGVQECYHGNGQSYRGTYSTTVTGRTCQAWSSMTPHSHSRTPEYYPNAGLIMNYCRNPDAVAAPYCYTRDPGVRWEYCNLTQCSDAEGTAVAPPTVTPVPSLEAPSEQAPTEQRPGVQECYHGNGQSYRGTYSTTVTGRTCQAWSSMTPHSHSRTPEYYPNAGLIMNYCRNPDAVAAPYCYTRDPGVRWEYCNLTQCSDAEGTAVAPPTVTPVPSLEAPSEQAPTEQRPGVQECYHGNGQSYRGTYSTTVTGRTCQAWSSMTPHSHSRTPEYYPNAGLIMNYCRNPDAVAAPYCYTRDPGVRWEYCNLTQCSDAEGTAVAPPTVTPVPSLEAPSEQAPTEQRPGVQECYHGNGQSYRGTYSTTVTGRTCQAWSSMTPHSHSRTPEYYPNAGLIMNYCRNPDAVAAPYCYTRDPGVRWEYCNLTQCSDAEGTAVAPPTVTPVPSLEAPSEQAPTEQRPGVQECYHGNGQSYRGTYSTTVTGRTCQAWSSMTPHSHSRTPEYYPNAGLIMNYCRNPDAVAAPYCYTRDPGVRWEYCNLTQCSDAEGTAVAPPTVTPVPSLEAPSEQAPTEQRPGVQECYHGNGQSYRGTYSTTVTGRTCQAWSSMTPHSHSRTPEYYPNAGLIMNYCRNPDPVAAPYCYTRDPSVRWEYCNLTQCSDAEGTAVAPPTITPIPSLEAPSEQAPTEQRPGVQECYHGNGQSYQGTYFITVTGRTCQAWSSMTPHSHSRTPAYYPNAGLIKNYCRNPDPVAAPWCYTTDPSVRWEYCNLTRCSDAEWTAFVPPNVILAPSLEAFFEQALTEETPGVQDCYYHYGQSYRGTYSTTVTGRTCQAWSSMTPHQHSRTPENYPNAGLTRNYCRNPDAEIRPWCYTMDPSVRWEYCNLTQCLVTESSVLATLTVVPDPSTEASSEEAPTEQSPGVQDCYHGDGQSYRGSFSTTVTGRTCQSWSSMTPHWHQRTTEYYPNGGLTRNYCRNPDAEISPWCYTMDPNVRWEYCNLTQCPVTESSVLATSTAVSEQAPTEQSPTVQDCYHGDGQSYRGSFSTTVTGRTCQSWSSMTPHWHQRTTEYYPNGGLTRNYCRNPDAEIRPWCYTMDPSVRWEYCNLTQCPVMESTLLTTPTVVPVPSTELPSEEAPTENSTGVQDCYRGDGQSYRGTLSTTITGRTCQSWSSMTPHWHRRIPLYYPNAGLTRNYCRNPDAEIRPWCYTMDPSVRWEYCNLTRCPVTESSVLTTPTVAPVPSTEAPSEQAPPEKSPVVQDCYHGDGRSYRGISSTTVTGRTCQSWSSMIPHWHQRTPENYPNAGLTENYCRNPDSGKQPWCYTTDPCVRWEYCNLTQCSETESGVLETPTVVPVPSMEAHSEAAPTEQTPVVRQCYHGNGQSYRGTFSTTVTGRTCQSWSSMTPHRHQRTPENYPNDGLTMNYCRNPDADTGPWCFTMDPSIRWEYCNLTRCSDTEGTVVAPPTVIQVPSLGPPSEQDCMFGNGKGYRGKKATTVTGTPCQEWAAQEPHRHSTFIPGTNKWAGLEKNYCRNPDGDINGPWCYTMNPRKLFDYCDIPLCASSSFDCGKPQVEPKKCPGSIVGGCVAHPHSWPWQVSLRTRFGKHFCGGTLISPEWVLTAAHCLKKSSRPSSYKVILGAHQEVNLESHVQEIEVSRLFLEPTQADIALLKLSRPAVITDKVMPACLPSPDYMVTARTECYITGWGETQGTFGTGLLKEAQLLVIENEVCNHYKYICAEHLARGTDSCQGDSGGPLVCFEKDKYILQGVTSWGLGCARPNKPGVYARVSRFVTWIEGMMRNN", "assay": "Methods of ELISA Assay on Screening Lp(a) Assembly Inhibition", "experimental": "1) Added 100 μL of capture antibody to each well of a pre-coated ELISA plate and incubated overnight at 25° C.2) Added 300 μL of washing solution to each well and washed 5 times for 1 min each time.3) Added 100 μL of blocking solution to each well and incubated at 25° C. for 2 h.4) Added 300 μL of washing solution to each well and washed 5 times for 1 min each time.5) Added 100 μL of sample to each well and incubated at 25° C. for 1 h.6) Added 300 μL of washing solution to each well and washed 5 times for 1 min each time.7) Added 100 μL of detection antibody to each well and incubated at 25° C. for 1 h.8) Added 300 μL of washing solution to each well and washed 5 times for 1 min each time.9) Added 100 μL substrate solution (Color Reagent A: Color Reagent B, 1:1) to each well and incubated for 20 min at 25° C. in the dark.10) Added […] of stop solution to each well, gently blowed and sucked several times with the pipette tip, and read within 5 min."}
{"smiles": "O=C(O)[C@@H](Cc1cc2cc(CN(Cc3ccc4oc(C[C@H](C(=O)O)[C@H]5CCNC5)cc4c3)Cc3ccc4oc(C[C@H](C(=O)O)[C@H]5CCNC5)cc4c3)ccc2o1)[C@H]1CCNC1", "note": "[US20250179055, Compound 127]", "values": [{"measurement": "IC50", "value": 0.9, "unit": "nM"}]}
